For one test, the target named is T1, human GPR119 (Homo sapiens, UniProt Q8TDV5).
T1 construct: expression vector for human GPR119 cDNA (Acc. No. NP_848566); expressed in transfected cells
T1 sequence (Q8TDV5 1-335): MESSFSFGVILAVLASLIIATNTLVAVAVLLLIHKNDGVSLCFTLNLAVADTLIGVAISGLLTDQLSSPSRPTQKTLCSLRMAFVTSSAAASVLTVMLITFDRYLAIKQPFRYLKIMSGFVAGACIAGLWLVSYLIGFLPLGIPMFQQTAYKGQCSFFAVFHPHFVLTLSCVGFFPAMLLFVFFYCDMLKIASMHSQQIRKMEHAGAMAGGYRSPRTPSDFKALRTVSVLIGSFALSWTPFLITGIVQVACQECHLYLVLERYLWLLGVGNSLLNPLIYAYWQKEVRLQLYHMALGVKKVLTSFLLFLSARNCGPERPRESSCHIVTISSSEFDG
Kind of test: AlphaScreen cAMP assay in MIN6 cells stably transfected with human GPR119. The following applies: Min-6/hGPR119 cells, 45 minutes incubation at room temperature. The format is cell-based. The procedure:
The compounds of formula I according to the invention modulate the activity of the G-protein-coupled receptor GPR119. The effect of the compounds on the activation of GPR119 and on the stimulation of intracellular cAMP concentration is determined using the AlphaScreen cAMP Assay Kit (Cat.No.#6760625R) made by PerkinElmer.
MIN6 cells [Miyazaki J et al. Endocrinology. 1990 July; 127(1):126-32] are stably transfected with an expression vector for human GPR119 cDNA (Acc. No. NP_848566). Min-6/hGPR119 cells are cultured in DMEM, 10% FBS, 50 μM β-mercaptoethanol, 0.3 mg/mL Geniticin, 2 mM GlutaMAX at 37° C. 5% CO2. For the assay, the cells are seeded in Optiplates (white, 384-well, 160W-barcoded, TC, sterile with lid, Cat.No.#6007688 (Perkin Elmer); 10000 cells/well; 50 μl). The plates covered with lids are then incubated for 24 hours at 37° C./5% CO2. After the medium is aspirated from the wells completely, 10 μl of the test compound are added, the compounds are diluted using stimulating buffer (140 mM NaCl, 3.6 mM KCl, 0.5 mM NaH2PO4, 0.5 mM MgSO4, 1.5 mM CaCl2, 10 mM Hepes, 5 mM NaHCO3; pH 7.4. 0.5 mM IBMX and 0.1% BSA, the final DMSO concentration is 1%). After 45 minutes incubation at room temperature (approx. 20° C.), the cAMP concentrations are determined using the AlphaScreen cAMP Assay Kit (Cat.No.#6760625R from PerkinElmer).
In general terms: In Alpha technology, singlet oxygen from a donor bead excites a nearby acceptor bead.
The molecule `O=C(c1cnc(-n2ccnc2)nc1)N(C1CC1)C1CCN(c2nc(-c3ccccc3)no2)CC1` [Example 1, 2-Imidazol-1-yl-pyrimidine-5-carboxylic acid cyclopropyl-[1-(3-phenyl-[1,2,4]oxadiazol-5-yl)-piperidin-4-yl]-amide] showed an EC50 of 0.031 µM.

As for `O=C(c1cnc(-c2ccncc2)nc1)N(C1CC1)C1CCN(c2nc(-c3ccccc3)no2)CC1` [Example 2, 2-Pyridin-4-yl-pyrimidine-5-carboxylic acid cyclopropyl-[1-(3-phenyl-[1,2,4]oxadiazol-5-yl)-piperidin-4-yl]-amide], the EC50 is 0.011 µM.

Consider `CCOc1ccc(-c2ncc(C(=O)N(C3CC3)C3CCN(c4ncc(CC)cn4)CC3)cn2)cn1` [Example 3, 2-(6-Ethoxy-pyridin-3-yl)-pyrimidine-5-carboxylic acid cyclopropyl-[1-(5-ethyl-pyrimidin-2-yl)-piperidin-4-yl]-amide], for which a half-maximal response (EC50) required 0.487 µM.

`CCc1cnc(N2CCC(N(C(=O)c3cnc(-c4ccc(C#N)c(F)c4)nc3)C3CC3)CC2)nc1` [Example 4] displayed an EC50 of 0.094 µM.

Molecule `CCc1cnc(N2CCC(N(C(=O)c3cnc(-c4ccc(CC#N)cc4)nc3)C3CC3)CC2)nc1` [Example 5, 2-(4-Cyanomethyl-phenyl)-pyrimidine-5-carboxylic acid cyclopropyl-[1-(5-ethyl-pyrimidin-2-yl)-piperidin-4-yl]-amide] yielded an EC50 of 0.118 µM.

In turn, `CC(C)c1noc(N2CCC(N(C(=O)c3ccc(-c4ccc(S(C)(=O)=O)cc4)nc3)C3CC3)CC2)n1` [Example 6, N-Cyclopropyl-N-[1-(3-isopropyl-[1,2,4]oxadiazol-5-yl)-piperidin-4-yl]-6-(4-methanesulfonyl-phenyl)-nicotinamide] yielded an EC50 of 0.096 µM.

For the molecule `CCOc1ccc(-c2ncc(C(=O)N(C3CC3)C3CCN(c4nc(-c5ccccc5)no4)CC3)cn2)cn1` [Example 7, 2-(6-Ethoxy-pyridin-3-yl)-pyrimidine-5-carboxylic acid cyclopropyl-[1-(3-phenyl[1,2,4]oxadiazol-5-yl)-piperidin-4-yl]amide], the response was half-maximal at 0.025 µM (EC50).

The molecule `CCc1noc(N2CCC(N(C(=O)c3cnc(-c4ccc(CC#N)cc4)nc3)C3CC3)CC2)n1` [Example 8, 2-(4-Cyanomethyl-phenyl)-pyrimidine-5-carboxylic acid cyclopropyl-[1-(3-ethyl-[1,2,4]oxadiazol-5-yl)-piperidin-4-yl]-amide] had a concentration for a half-maximal effect (EC50) of 0.036 µM.

As for `N#CCc1ccc(-c2ncc(C(=O)N(C3CC3)C3CCN(c4nc(-c5ccccc5)no4)CC3)cn2)cc1` [Example 9, 2-(4-Cyanomethyl-phenyl)-pyrimidine-5-carboxylic acid cyclopropyl-[1-(3-phenyl-[1,2,4]oxadiazol-5-yl)-piperidin-4-yl]-amide], the EC50 was determined as 0.019 µM.

`CCOc1ccc(-c2ncc(C(=O)N(C3CC3)C3CCN(c4nc(CC)no4)CC3)cn2)cn1` [Example 10, 2-(6-Ethoxy-pyridin-3-yl)-pyrimidine-5-carboxylic acid cyclopropyl-[1-(3-ethyl-[1,2,4]oxadiazol-5-yl)-piperidin-4-yl]-amide] yielded an EC50 of 0.101 µM.

Molecule `CCc1noc(N2CCC(N(C(=O)c3cnc(-c4ccc(C#N)c(F)c4)nc3)C3CC3)CC2)n1` [Example 11, 2-(4-Cyano-3-fluoro-phenyl)-pyrimidine-5-carboxylic acid cyclopropyl-[1-(3-ethyl-[1,2,4]oxadiazol-5-yl)-piperidin-4-yl]-amide] came in with an EC50 of 0.032 µM.

`CCc1cnc(N2CCC(N(C(=O)c3cnc(-n4ccnc4)nc3)C3CC3)CC2)nc1` [Example 12, 2-Imidazol-1-yl-pyrimidine-5-carboxylic acid cyclopropyl-[1-(5-ethyl-pyrimidin-2-yl)-piperidin-4-yl]-amide] returned an EC50 of 0.035 µM.

`CCc1cnc(N2CCC(N(C(=O)c3cnc(-c4ccc(S(C)(=O)=O)cc4)nc3)C3CC3)CC2)nc1` [Example 13, 2-(4-Methanesulfonyl-phenyl)-pyrimidine-5-carboxylic acid cyclopropyl-[1-(5-ethyl-pyrimidin-2-yl)-piperidin-4-yl]-amide]: a half-maximal effect (EC50) was put at 0.024 µM.

In turn, `CCc1cnc(N2CCC(N(C(=O)c3cnc(-n4ccnc4C)nc3)C3CC3)CC2)nc1` [Example 14, 2-(2-Methyl-imidazol-1-yl)-pyrimidine-5-carboxylic acid cyclopropyl-[1-(5-ethyl-pyrimidin-2-yl)-piperidin-4-yl]-amide] returned an EC50 of 0.021 µM.

In the case of `CCc1cnc(N2CCC(N(C(=O)c3cnc(-n4ccnc4CC)nc3)C3CC3)CC2)nc1` [Example 15, 2-(2-Ethyl-imidazol-1-yl)-pyrimidine-5-carboxylic acid cyclopropyl-[1-(5-ethyl-pyrimidin-2-yl)-piperidin-4-yl]-amide], a half-maximal effect (EC50) was put at 0.06 µM.

In the case of `CCCc1noc(N2CCC(N(C(=O)c3cnc(-c4ccc(S(C)(=O)=O)cc4)nc3)C3CC3)CC2)n1` [Example 16, 2-(4-Methanesulfonyl-phenyl)-pyrimidine-5-carboxylic acid cyclopropyl-[1-(3-propyl-[1,2,4]oxadiazol-5-yl)-piperidin-4-yl]-amide], the EC50 was 0.159 µM.

Molecule `CCc1cnc(N2CCC(N(C(=O)c3ccc(-n4ccnc4)nn3)C3CC3)CC2)nc1` [Example 17, 6-Imidazol-1-yl-pyridazine-3-carboxylic acid cyclopropyl-[1-(5-ethyl-pyrimidin-2-yl)-piperidin-4-yl]-amide] gave an EC50 of 0.964 µM.

In turn, `CCCc1noc(N2CCC(N(C(=O)c3noc(-c4ccc(C#N)cc4F)n3)C3CC3)CC2)n1` [Example 18, 5-(4-Cyano-2-fluoro-phenyl)-[1,2,4]oxadiazole-3-carboxylic acid cyclopropyl-[1-(3-propyl-[1,2,4]oxadiazol-5-yl)-piperidin-4-yl]-amide] came in with an EC50 of 0.007 µM.

`Cc1cnc(N2CCC(N(C(=O)c3cnc(-n4ccnc4C)nc3)C3CC3)CC2)cn1` [Example 19, 2-(2-Methyl-imidazol-1-yl)-pyrimidine-5-carboxylic acid cyclopropyl-[1-(5-methyl-pyrazin-2-yl)-piperidin-4-yl]-amide] gave an EC50 of 0.097 µM.

The target in another test is T2, mutant form of the human GPR119 receptor (Homo sapiens, UniProt Q8TDV5, S329A/T327A).
T2 construct: expressed in transfected cells
T2 sequence (Q8TDV5 with tags, fused parts or gaps T327A/S329A): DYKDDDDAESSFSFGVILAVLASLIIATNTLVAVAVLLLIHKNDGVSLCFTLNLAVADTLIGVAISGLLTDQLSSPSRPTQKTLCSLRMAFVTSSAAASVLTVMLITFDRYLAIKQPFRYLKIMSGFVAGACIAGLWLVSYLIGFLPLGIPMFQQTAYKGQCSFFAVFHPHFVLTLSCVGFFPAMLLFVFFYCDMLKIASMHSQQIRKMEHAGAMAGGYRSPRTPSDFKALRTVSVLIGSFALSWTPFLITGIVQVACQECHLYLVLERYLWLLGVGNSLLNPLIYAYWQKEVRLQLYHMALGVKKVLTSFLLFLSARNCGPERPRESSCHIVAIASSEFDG
Description: LANCE cAMP-384 assay in HEK293 cells stably expressing a mutant form of the human GPR119 receptor. It is filed as cell-based. As to conditions: cAMP accumulation, GPR119 stable HEK293 cells, LANCE kit, 20 min at 37° C. The method, then:
Quantitative detection of cAMP accumulation from cells expressing human GPR119 receptor is achieved using Perkin Elmer's LANCE cAMP-384 Kit (Cat#AD0264) according to the manufacturer's protocol. Briefly, HEK293 cells stably expressing a mutant form of the human GPR119 receptor as assay tool (Methionine 1 replaced with the amino acid sequence […], and T327 & S329 changed to alanines; SEQ ID No. 1) are grown to 50-70% confluency in cell culture media (DMEM, 10% heat inactivated Fetal Bovine Serum, 50 I.U./mL penicillin, 50 μg/mL streptomycin, 10 mM HEPES, 20 μg/mL G418 Sulfate). On the day of the assay, GPR119 stable HEK293 cells are lifted from the tissue culture plate and 1000 cells/well are incubated along with various concentrations of test compounds for 20 min at 37° C. Detection Buffer (50 mM HEPES, 10 mM calcium chloride, 0.35% Triton X-100, 1 mg/mL BSA) containing cAMP-specific antibody is then added to all wells and allowed to equilibrate in the dark for 10 minutes at room temperature. Upon equilibration, Detection Buffer containing europium-labeled cAMP tracer complex is added to all wells and allowed to react for 1 hour at room temperature. After 1 hour, bound europium-labeled cAMP tracer is measured using a Perkin Elmer Envision plate reader. The quantity of cAMP generated in each well is derived from a standard curve. EC50 is determined using nonlinear regression analysis of the cAMP values over a range of agonist concentration (12 points spanning the range from 30 μM to 100 pM).
For orientation: TR-FRET usually uses a lanthanide donor and a delayed reading to cut background.
Take `Cc1nccn1-c1ncc(C(=O)N(C2CC2)C2CCN(c3ncc(Cl)cn3)CC2)cn1` [Example 67]: the EC50 was determined as 0.045 µM.

Take `Cc1ncn(-c2cnc(C(=O)N(C3CC3)C3CCN(c4ncc(Cl)cn4)CC3)cn2)n1` [Example 68]: the response was half-maximal at 0.125 µM (EC50).

The molecule `CCc1cnc(N2CCC(N(C(=O)c3cn(-c4ccc(C#N)cn4)cn3)C3CC3)CC2)nc1` [Example 104] came in with an EC50 of 0.061 µM.

In turn, `CCc1cnc(N2CCC(N(C(=O)c3cn(-c4ccc(S(C)(=O)=O)cc4F)cn3)C3CC3)CC2)nc1` [Example 105] returned an EC50 of 0.233 µM.

As to `CCc1cnc(N2CCC(N(C(=O)c3cn(-c4ccc(C#N)cc4F)cn3)C3CC3)CC2)nc1` [Example 106], the EC50 was 0.057 µM.

One may read the EC50 as the midpoint of the concentration-response curve. A low value points to an effect from little substance.

Source of the values: patent US8921398B2 (Boehringer Ingelheim International GmbH, priority 2011, dated 2014).
